Assay results from ChEMBL document CHEMBL1138604, “Structure-activity relationships of lipopolysaccharide sequestration in N-alkylpolyamines” (Bioorg Med Chem Lett, 2009).
Activity calls are given as the source filed them. No cut-off for these calls is given here.

system: HEK293; experiment: Inhibition of LPS-induced NF-kappaB nuclear transactivation in HEK293 cells transfected with TLR4 coexpressing MD2 and CD14 co-receptor assessed as alkaline phosphatase activity by spectrophotometry; format: cell-based; conditions: Homo sapiens

SMILES	Activity
CCCCCCCCCCCCCCCCNCCCNCCCNCCCNCCCNCCCN	Active
CCCCCCCCCCCCCCCCNCCCNCCCNCCCN	Active
CCCCCCCCCCCCCCCCNCCCNCCCNCCCNCCCN	Active
CCCCCCCCCCCCCCCCNCCCNCCCCNCCCN	Active
CCCCCCCCCCCCCCCCNCCCNCCCNCCCCNCCCNCCCN	Active
CCCCCCCCCCCCCCCCNCCCNCCCNCCCCNCCCN	Active
